Reference: ChEMBL document CHEMBL5385878, “Synthesis and structure-activity optimization of 7-azaindoles containing aza-β-amino acids targeting the influenza PB2 subunit” (Eur J Med Chem, 2023)
Active and inactive are the calls of the source. The rule behind the calls is not given here.

System: Influenza A virus
Assay: Antiviral activity against Influenza A/WSN/33 harboring H275Y mutant at 0.3 uM
Format: functional, organism-based

SMILES: CC(C)(C)N(CC(=O)O)Nc1nc(-c2c[nH]c3ncc(F)cc23)ncc1F
- Activity: Active
